Data reported in the NIST ThermoML archive (doi:10.1021/je700344f).
“And” between values parts separate entries of the source, which are not always exact repeats. Identical values can stand only once. ± gives the expanded uncertainty stated by the source.

Experiments:
[1] = 101.33 kPa, Liquid
[2] = xn = mol fraction of the nth substance listed; conditions: 101 kPa, Liquid

C1COCCO1 [1,4-dioxane]
[1]
Conditions	mass density [kg/m3]	viscosity [mPa·s]
283.15 K	1046.91 ± 3.4	1.59 ± 0.11
293.15 K	1035.03 ± 3.1	1.312 ± 0.094
303.15 K	1022.71 ± 2.8	1.102 ± 0.081
313.15 K	1011.32 ± 2.5	0.946 ± 0.071
323.15 K	999.12 ± 2.2	0.825 ± 0.063
333.15 K	987.92 ± 2.5	0.721 ± 0.056
343.15 K	976.61 ± 2.8	0.64 ± 0.051

CN(C)c1ccccc1 [N,N-dimethylaniline]
[1]
Conditions	mass density [kg/m3]	viscosity [mPa·s]
283.15 K	969.97 ± 2.9	1.696 ± 0.12
293.15 K	963.01 ± 3.1	1.439 ± 0.1
303.15 K	956.21 ± 3.3	1.17 ± 0.085
313.15 K	948.34 ± 3.5	0.981 ± 0.073
323.15 K	940.24 ± 3.7	0.928 ± 0.07
333.15 K	932.71 ± 3.9	0.911 ± 0.068
343.15 K	924.08 ± 4.1	0.841 ± 0.064

CCCCCCO [hexan-1-ol]
[1]
Conditions	mass density	viscosity
283.15 K	828.23 ± 6.5 kg/m3	7.459 ± 0.44 mPa·s
293.15 K	821.01 ± 6.7 kg/m3	5.335 ± 0.34 mPa·s
303.15 K	815.92 ± 6.8 kg/m3 and 813.96 ± 6.9 kg/m3	3.763 ± 0.25 mPa·s and 3.917 ± 0.26 mPa·s
313.15 K	810.91 ± 7 kg/m3	2.937 ± 0.2 mPa·s
323.15 K	806.84 ± 7 kg/m3 and 804.22 ± 7.1 kg/m3	2.172 ± 0.15 mPa·s and 2.276 ± 0.16 mPa·s
333.15 K	802.91 ± 7.2 kg/m3	1.654 ± 0.12 mPa·s
343.15 K	798.64 ± 7.3 kg/m3	1.411 ± 0.1 mPa·s

CCCCCCO [hexan-1-ol] + C1COCCO1
[2]
Conditions	mass density [kg/m3]	viscosity [mPa·s]
283.15 K, x2 = 0.1835	860.24 ± 5.6	4.488 ± 0.3
283.15 K, x2 = 0.2675	873.31 ± 5.3	3.52 ± 0.23
283.15 K, x2 = 0.385	896.72 ± 4.7	2.785 ± 0.19
283.15 K, x2 = 0.4933	916.23 ± 4.2	2.324 ± 0.16
283.15 K, x2 = 0.5935	938.47 ± 3.7	2.007 ± 0.14
283.15 K, x2 = 0.6866	957.86 ± 3.2	1.815 ± 0.13
283.15 K, x2 = 0.7731	981.11 ± 2.6	1.691 ± 0.12
283.15 K, x2 = 0.8795	1013.54 ± 2.5	1.601 ± 0.11
293.15 K, x2 = 0.1835	853.33 ± 5.8	3.221 ± 0.22
293.15 K, x2 = 0.2675	865.64 ± 5.5	2.707 ± 0.18
293.15 K, x2 = 0.385	889.2 ± 4.9	2.184 ± 0.15
293.15 K, x2 = 0.4933	903.63 ± 4.6	1.845 ± 0.13
293.15 K, x2 = 0.5935	929.82 ± 3.9	1.626 ± 0.11
293.15 K, x2 = 0.6866	951.11 ± 3.4	1.554 ± 0.11
293.15 K, x2 = 0.7731	973.8 ± 2.8	1.395 ± 0.1
293.15 K, x2 = 0.8795	1002.74 ± 2.2	1.311 ± 0.094
303.15 K, x2 = 0.1835	845.02 ± 6	2.632 ± 0.18
303.15 K, x2 = 0.2675	857.53 ± 5.7	2.121 ± 0.15
303.15 K, x2 = 0.385	879.87 ± 5.1	1.748 ± 0.12
303.15 K, x2 = 0.4933	898.36 ± 4.7	1.506 ± 0.11
303.15 K, x2 = 0.5935	920.31 ± 4.2	1.339 ± 0.096
303.15 K, x2 = 0.6866	941.43 ± 3.6	1.238 ± 0.089
303.15 K, x2 = 0.7731	963.84 ± 3.1	1.173 ± 0.085
303.15 K, x2 = 0.8795	990.21 ± 2.4	–
313.15 K, x2 = 0.1835	836.88 ± 6.2	2.285 ± 0.16
313.15 K, x2 = 0.2675	849.44 ± 5.9	1.705 ± 0.12
313.15 K, x2 = 0.385	871.16 ± 5.4	1.431 ± 0.1
313.15 K, x2 = 0.4933	889.72 ± 4.9	1.254 ± 0.091
313.15 K, x2 = 0.5935	909.94 ± 4.4	1.127 ± 0.082
313.15 K, x2 = 0.6866	931.85 ± 3.9	1.053 ± 0.078
313.15 K, x2 = 0.7731	953.63 ± 3.3	1.002 ± 0.074
313.15 K, x2 = 0.8795	980.82 ± 2.6	0.965 ± 0.072
323.15 K, x2 = 0.1835	829.74 ± 6.4	1.699 ± 0.12
323.15 K, x2 = 0.2675	841.13 ± 6.1	1.403 ± 0.1
323.15 K, x2 = 0.385	864.56 ± 5.5	1.196 ± 0.087
323.15 K, x2 = 0.4933	880.42 ± 5.1	1.056 ± 0.078
323.15 K, x2 = 0.5935	900.9 ± 4.6	0.964 ± 0.072
323.15 K, x2 = 0.6866	921.84 ± 4.1	0.907 ± 0.068
323.15 K, x2 = 0.7731	943.38 ± 3.6	0.869 ± 0.066
323.15 K, x2 = 0.8795	971.57 ± 2.9	0.843 ± 0.064
333.15 K, x2 = 0.1835	821.17 ± 6.6	1.289 ± 0.093
333.15 K, x2 = 0.2675	833.54 ± 6.3	1.16 ± 0.084
333.15 K, x2 = 0.385	856.26 ± 5.7	1.012 ± 0.075
333.15 K, x2 = 0.4933	869.91 ± 5.4	0.903 ± 0.068
333.15 K, x2 = 0.5935	890.93 ± 4.9	0.839 ± 0.064
333.15 K, x2 = 0.6866	911.92 ± 4.4	0.792 ± 0.061
333.15 K, x2 = 0.7731	933.31 ± 3.8	0.763 ± 0.059
333.15 K, x2 = 0.8795	958.09 ± 3.2	0.742 ± 0.057
343.15 K, x2 = 0.1835	815.14 ± 6.8	1.074 ± 0.079
343.15 K, x2 = 0.2675	824.52 ± 6.5	0.975 ± 0.073
343.15 K, x2 = 0.385	843.77 ± 6	0.863 ± 0.065
343.15 K, x2 = 0.4933	862.93 ± 5.6	0.786 ± 0.06
343.15 K, x2 = 0.5935	881.04 ± 5.1	0.732 ± 0.057
343.15 K, x2 = 0.6866	905.05 ± 4.5	0.748 ± 0.058
343.15 K, x2 = 0.7731	923.91 ± 4.1	0.678 ± 0.053
343.15 K, x2 = 0.8795	947.05 ± 3.5	0.662 ± 0.052
